What all share (type): biochemical
The target in test [1] is T1, IDH1 R132H (isocitrate dehydrogenase 1) (Homo sapiens, UniProt O75874, R132H).
T1 construct: homodimeric (2 × 47 kDa)
As to the kind of experiment: electrochemical turnover (cyclic voltammetry) with nanoconfined purified enzyme.

For test [2], the target named is T2, IDH1 (isocitrate dehydrogenase 1) (Homo sapiens, UniProt O75874).
T2 construct: homodimeric (2 × 47 kDa)
As to the kind of experiment: bidirectional cyclic voltammetry of 2OG/isocitrate interconversion with CO2 supplied by carbonic anhydrase.

The target of test [3] is T2, IDH1 (isocitrate dehydrogenase 1). As to the kind of experiment: electrochemical turnover (cyclic voltammetry) with nanoconfined purified enzyme.

T2 sequence (O75874 2-414): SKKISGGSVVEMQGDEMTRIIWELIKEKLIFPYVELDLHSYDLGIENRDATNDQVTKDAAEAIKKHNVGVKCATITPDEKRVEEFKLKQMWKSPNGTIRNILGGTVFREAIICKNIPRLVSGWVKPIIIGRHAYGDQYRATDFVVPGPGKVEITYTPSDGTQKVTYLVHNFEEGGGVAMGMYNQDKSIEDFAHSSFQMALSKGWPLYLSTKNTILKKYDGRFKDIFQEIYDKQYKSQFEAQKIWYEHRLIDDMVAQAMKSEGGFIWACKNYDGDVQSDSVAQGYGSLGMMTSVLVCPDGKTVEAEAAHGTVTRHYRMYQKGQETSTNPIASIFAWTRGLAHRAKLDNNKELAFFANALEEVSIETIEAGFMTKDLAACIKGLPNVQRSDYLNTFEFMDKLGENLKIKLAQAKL
T1 sequence (O75874 2-414 R132H): as the sequence (O75874 2-414) above, with R131H counted along it

`O=C(O)CCC(=O)C(=O)O` [2OG, 2-oxoglutarate]: the “electrochemical turnover (cyclic voltammetry) with nanoconfined purified enzyme” value in test [1] is reported as “R132H-catalyzed 2OG reduction (Figure 1C, D) is much slower, manifesting low currents”. In test [2], the “bidirectional cyclic voltammetry of 2OG/isocitrate interconversion with CO2 supp” value is “Cyclic voltammetry measuring bidirectionality of IDH1-catalyzed 2OG/isocitrate interconversion at different 2OG/isocitrate ratios”.

In the case of `O=C(O)CC(C(=O)O)C(O)C(=O)O` (stereo not drawn) [isocitrate], the “electrochemical turnover (cyclic voltammetry) with nanoconfined purified enzyme” value in test [3] was “IDH1 (Figure 1A, B) is an excellent catalyst for isocitrate oxidation”.
